Experimental data published in patent publication US9827237B2, “Compounds useful for treating diseases caused by retroviruses” (ABIVAX, priority 2013, dated 2017).

Test system: HTLV-1
Assay: Inhibition of HTLV-1: Tax-1 protein expression by western blotting in HUT102 cells
Type: cell-based, Human T-lymphotropic virus (HTLV)
Details: HUT102 (HTLV-1 chronically infected) cells, 10 μM daily for three days; western blot, normalised by tubulin, related to DMSO treated cells; triplicate
Description: To determine whether the compounds described above could act as HTLV inhibitors, a screen was performed on HUT102 (HTLV-1 chronically infected) cells.
Cells were plated at a density of 150 000 cells per well in 96 wells plates and treated daily with 10 μM of compounds for three days.
Cells were then harvested and an aliquot was used for cytotoxicity evaluation with Cell Titer (Promega).
The remaining cells was washed in phosphate buffer saline (PBS) and lysed for protein quantification with Bradford Assay (Sigma).
Then, HTLV Tax-1 protein expression was evaluated from 30 μg of total proteins by western blotting analysis.
Tax-1 expression was normalised by tubulin expression and related to control (DMSO treated) cells. Each compound was tested in triplicate.

COc1ccc(Nc2ccc3c(N4CCN(C)CC4)ccnc3c2)cc1 [Compound 166, N-(4-methoxyphenyl)-4-(4-methylpiperazin-1-yl)quinolin-7-amine]
reduced Tax-1 expression when compared to control: 80%
